Data reported in the supplement of paper PMC11061612.

Tests used:
Experiment in all cases: combination Emax (second highest fraction inhibited in the dose matrix, 72 h); higher = more inhibition; extreme values may be limits of the assay
[1] = test system: SNU-16 (Gastric Carcinoma)
Summary of the method: (§1)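 Cell lines in DMEM/F12 or RPMI with 10% FBS were plated in 1536-well plates, held 24 hours at 37°C, 5% CO2, then given two-drug dose matrices for 72 hours (DMSO typically 0.2%). Viability was read by CellTiter-Glo 2.0 luminescence and scaled as inhibition from 0 (vehicle wells) to 1 (blank wells). Combination Emax is the second-highest inhibition in the matrix; Bliss excess is observed combination effect minus expected EA + EB − EA·EB, EA and EB being single-agent effects.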

MPP-89 (Mesothelioma) = test system: MPP-89 (Mesothelioma)
Summary of the method: as §1

[2] = test system: BFTC-909 (Kidney Carcinoma)
Summary of the method: as §1

[3] = test system: Detroit562 (Head and Neck Carcinoma)
Summary of the method: as §1

[4] = test system: LNZTA3WT4 (Low Grade Glioma)
Summary of the method: as §1

[5] = test system: L-428 (Hodgkin's Lymphoma)
Summary of the method: as §1

[6] = test system: ESS-1 (Other Solid Carcinomas)
Summary of the method: as §1

KS-1 (Glioblastoma) = test system: KS-1 (Glioblastoma)
Summary of the method: as §1

[7] = test system: MHH-CALL-2 (B-Lymphoblastic Leukemia)
Summary of the method: as §1

[8] = test system: OV-56 (Ovarian Carcinoma)
Summary of the method: as §1

GAMG (Glioblastoma) = test system: GAMG (Glioblastoma)
Summary of the method: as §1

[9] = test system: OVCAR-5 (Ovarian Carcinoma)
Summary of the method: as §1

[10] = test system: BE-13 (T-Lymphoblastic Leukemia)
Summary of the method: as §1

BE2-M17 (Neuroblastoma) = test system: BE2-M17 (Neuroblastoma)
Summary of the method: as §1

[11] = test system: HuCCT1 (Biliary Tract Carcinoma)
Summary of the method: as §1

NCI-H2722 (Mesothelioma) = test system: NCI-H2722 (Mesothelioma)
Summary of the method: as §1

[12] = test system: SW1710 (Bladder Carcinoma)
Summary of the method: as §1

[13] = test system: KYAE-1 (Esophageal Adenocarcinoma)
Summary of the method: as §1

[14] = test system: LS-123 (Colorectal Carcinoma)
Summary of the method: as §1

NCI-H2052 (Mesothelioma) = test system: NCI-H2052 (Mesothelioma)
Summary of the method: as §1

Compound: Cc1c2c(nn1C)CSCc1cc(n(C)n1)CSc1cc(c3ccccc3c1)OCCCc1c(C(=O)O)n(C)c3c-2c(Cl)ccc13 [AZD5991] + CCN(CCO)CCCOc1ccc2c(Nc3cc(CC(=O)Nc4cccc(F)c4)[nH]n3)ncnc2c1 [AZD2811] (first compound max 1 µM, 7x7, partner max 1 µM)
- combination Emax [1]: 0.996
- combination Emax (MPP-89 (Mesothelioma)): 0.248
- combination Emax [2]: 0.438
- combination Emax [3]: 0.951
- combination Emax [4]: 0.256
- combination Emax [5]: 0.31
- combination Emax [6]: 0.733
- combination Emax (KS-1 (Glioblastoma)): 0.286
- combination Emax [7]: 0.987
- combination Emax [8]: 0.2
- combination Emax (GAMG (Glioblastoma)): 0.534
- combination Emax [9]: 0.205
- combination Emax [10]: 0.929
- combination Emax (BE2-M17 (Neuroblastoma)): 0.905
- combination Emax [11]: 0.267
- combination Emax (NCI-H2722 (Mesothelioma)): 0.29
- combination Emax [12]: 0.228
- combination Emax [13]: 0.296
- combination Emax [14]: 0.229
- combination Emax (NCI-H2052 (Mesothelioma)): 0.265

Compound: Cc1c2c(nn1C)CSCc1cc(n(C)n1)CSc1cc(c3ccccc3c1)OCCCc1c(C(=O)O)n(C)c3c-2c(Cl)ccc13 [AZD5991] + CN(C)CCCOc1ccc(-c2ccc3ncc4c(c3c2)n(C2CCOCC2)c(=O)n4C)cn1 [AZD0156] (first compound max 1 µM, 7x7, partner max 1 µM)
- combination Emax [1]: 0.974
- combination Emax (MPP-89 (Mesothelioma)): 0.182
- combination Emax [2]: 0.239
- combination Emax [3]: 0.269
- combination Emax [4]: 0.227
- combination Emax [5]: 0.23
- combination Emax [6]: 0.36
- combination Emax (KS-1 (Glioblastoma)): 0.225
- combination Emax [7]: 0.985
- combination Emax [8]: 0.181
- combination Emax (GAMG (Glioblastoma)): 0.255
- combination Emax [9]: 0.251
- combination Emax [10]: 0.445
- combination Emax (BE2-M17 (Neuroblastoma)): 0.875
- combination Emax [11]: 0.286
- combination Emax (NCI-H2722 (Mesothelioma)): 0.243
- combination Emax [12]: 0.219
- combination Emax [13]: 0.177
- combination Emax [14]: 0.162
- combination Emax (NCI-H2052 (Mesothelioma)): 0.285

Compound: Cc1c2c(nn1C)CSCc1cc(n(C)n1)CSc1cc(c3ccccc3c1)OCCCc1c(C(=O)O)n(C)c3c-2c(Cl)ccc13 [AZD5991] + C[C@@H](Nc1cc(F)cc(F)c1)c1cc(C(=O)N(C)C)cc2c(=O)cc(N3CCOCC3)oc12 [AZD8186] (first compound max 1 µM, 7x7, partner max 3 µM)
- combination Emax [1]: 0.986
- combination Emax (MPP-89 (Mesothelioma)): 0.22
- combination Emax [2]: 0.3
- combination Emax [3]: 0.305
- combination Emax [4]: 0.232
- combination Emax [5]: 0.12
- combination Emax [6]: 0.372
- combination Emax (KS-1 (Glioblastoma)): 0.416
- combination Emax [7]: 0.989
- combination Emax [8]: 0.212
- combination Emax (GAMG (Glioblastoma)): 0.585
- combination Emax [9]: 0.267
- combination Emax [10]: 0.384
- combination Emax (BE2-M17 (Neuroblastoma)): 0.92
- combination Emax [11]: 0.4
- combination Emax (NCI-H2722 (Mesothelioma)): 0.197
- combination Emax [12]: 0.307
- combination Emax [13]: 0.209
- combination Emax [14]: 0.336
- combination Emax (NCI-H2052 (Mesothelioma)): 0.374

Compound: Cc1c2c(nn1C)CSCc1cc(n(C)n1)CSc1cc(c3ccccc3c1)OCCCc1c(C(=O)O)n(C)c3c-2c(Cl)ccc13 [AZD5991] + Cc1cc2ncnn2cc1Nc1ncc2c(n1)n(C1CCOCC1)c(=O)n2C [AZD7648] (first compound max 1 µM, 7x7, partner max 10 µM)
- combination Emax [1]: 0.999
- combination Emax (MPP-89 (Mesothelioma)): 0.343
- combination Emax [2]: 0.292
- combination Emax [3]: 0.422
- combination Emax [4]: 0.318
- combination Emax [5]: 0.251
- combination Emax [6]: 0.407
- combination Emax (KS-1 (Glioblastoma)): 0.253
- combination Emax [7]: 1
- combination Emax [8]: 0.189
- combination Emax (GAMG (Glioblastoma)): 0.382
- combination Emax [9]: 0.256
- combination Emax [10]: 0.406
- combination Emax (BE2-M17 (Neuroblastoma)): 0.9
- combination Emax [11]: 0.406
- combination Emax (NCI-H2722 (Mesothelioma)): 0.234
- combination Emax [12]: 0.177
- combination Emax [13]: 0.194
- combination Emax [14]: 0.399
- combination Emax (NCI-H2052 (Mesothelioma)): 0.394

Compound: Cc1c2c(nn1C)CSCc1cc(n(C)n1)CSc1cc(c3ccccc3c1)OCCCc1c(C(=O)O)n(C)c3c-2c(Cl)ccc13 [AZD5991] + Cn1cnc2c(F)c(Nc3ccc(Br)cc3Cl)c(C(=O)NOCCO)cc21 [Selumetinib] (first compound max 1 µM, 7x7, partner max 3 µM)
- combination Emax [1]: 0.989
- combination Emax (MPP-89 (Mesothelioma)): 0.193
- combination Emax [2]: 0.3
- combination Emax [3]: 0.365
- combination Emax [4]: 0.237
- combination Emax [5]: 0.0936
- combination Emax [6]: 0.224
- combination Emax (KS-1 (Glioblastoma)): 0.31
- combination Emax [7]: 1
- combination Emax [8]: 0.189
- combination Emax (GAMG (Glioblastoma)): 0.299
- combination Emax [9]: 0.543
- combination Emax [10]: 0.449
- combination Emax (BE2-M17 (Neuroblastoma)): 0.956
- combination Emax [11]: 0.508
- combination Emax (NCI-H2722 (Mesothelioma)): 0.238
- combination Emax [12]: 0.256
- combination Emax [13]: 0.163
- combination Emax [14]: 0.455
- combination Emax (NCI-H2052 (Mesothelioma)): 0.314

Compound: NC1(C(=O)N[C@@H](CCO)c2ccc(Cl)cc2)CCN(c2ncnc3[nH]ccc23)CC1 [Capivasertib] + CC(=O)c1c(C)c2cnc(Nc3ccc(N4CCNCC4)cn3)nc2n(C2CCCC2)c1=O [Palbociclib] (first compound max 10 µM, 7x7, partner max 10 µM)
- combination Emax [1]: 0.623
- combination Emax (MPP-89 (Mesothelioma)): 0.382
- combination Emax [2]: 0.704
- combination Emax [3]: 0.783
- combination Emax [4]: 0.562
- combination Emax [5]: 0.436
- combination Emax [6]: 0.593
- combination Emax (KS-1 (Glioblastoma)): 0.5
- combination Emax [7]: 0.216
- combination Emax [8]: 0.41
- combination Emax (GAMG (Glioblastoma)): 0.596
- combination Emax [9]: 0.455
- combination Emax [10]: 0.507
- combination Emax (BE2-M17 (Neuroblastoma)): 0.463
- combination Emax [11]: 0.43
- combination Emax (NCI-H2722 (Mesothelioma)): 0.326
- combination Emax [12]: 0.447
- combination Emax [13]: 0.162
- combination Emax [14]: 0.364
- combination Emax (NCI-H2052 (Mesothelioma)): 0.419

Compound: NC1(C(=O)N[C@@H](CCO)c2ccc(Cl)cc2)CCN(c2ncnc3[nH]ccc23)CC1 [Capivasertib] + CC(C)n1c(=O)n(C)c2cnc3cc(F)c(-c4ccc(OCCCN5CCCCC5)nc4)cc3c21 [AZD1390] (first compound max 10 µM, 7x7, partner max 0.3 µM)
- combination Emax [1]: 0.225
- combination Emax (MPP-89 (Mesothelioma)): 0.439
- combination Emax [2]: 0.622
- combination Emax [3]: 0.599
- combination Emax [4]: 0.372
- combination Emax [5]: 0.162
- combination Emax [6]: 0.46
- combination Emax (KS-1 (Glioblastoma)): 0.323
- combination Emax [7]: 0.231
- combination Emax [8]: 0.209
- combination Emax (GAMG (Glioblastoma)): 0.512
- combination Emax [9]: 0.32
- combination Emax [10]: 0.296
- combination Emax (BE2-M17 (Neuroblastoma)): 0.177
- combination Emax [11]: 0.24
- combination Emax (NCI-H2722 (Mesothelioma)): 0.34
- combination Emax [12]: 0.348
- combination Emax [13]: 0.109
- combination Emax [14]: 0.325
- combination Emax (NCI-H2052 (Mesothelioma)): 0.407
